# Reference: US11339144B2 (Navitor Pharmaceuticals, Inc., priority 2017, dated 2022)
# What was measured:
# [1] = biological target: HA-GST-Rheb (GTP-γ-S loaded) activating mTORC1 (Homo sapiens (Human), UniProt Q15382); experiment: Rheb-dependent in vitro kinase assay (Rheb-IVK; LanthaScreen or Western readout); type: biochemical; conditions: Rheb-dependent in vitro kinase assay; read-out: IVK IC50
# Rheb = Rheb (Homo sapiens (Human), UniProt Q15382); experiment: Affinity Selection Mass Spectrometry (ASMS); type: binding; conditions: affinity (R3/R0) in Affinity Selection Mass Spectrometry assay
# Chain of Rheb (Q15382 1-169 limits assumed): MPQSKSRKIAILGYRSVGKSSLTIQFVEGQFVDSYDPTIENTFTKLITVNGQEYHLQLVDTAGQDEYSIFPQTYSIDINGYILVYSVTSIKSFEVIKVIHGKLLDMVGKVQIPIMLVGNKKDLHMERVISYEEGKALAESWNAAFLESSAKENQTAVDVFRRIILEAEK
# Procedure: Method 2 (Affinity Selection Mass Spectrometry
# Protein: Rheb (19 KDa) in the following buffer: 20 mM Tris, pH 8.0, 200 mM NaCl, 2 mM DTT, 5 mM MgCl2 was prepared as under.
# Human Rheb protein (I-169) was purified from BL21 (DE3) E. coli using a His-Smt-Rheb expression vector. The cell paste was lysed in lysis buffer (50 mM HEPES pH 7.5, 0.5 M NaCl, 5% Glycerol, 1% CHAPS, EDTA free protease inhibitor tablets, lysozyme to 1 mg/mL, benzonase 250U), sonicated, and purified on a HiTrap Ni Chelating Column (GE Healthcare) using the following buffer: 50 mM HEPES pH 7.5, 0.5 M NaCl, 5% Glycerol, and imidazole increasing in concentration from 5 mM to 500 mM. The His-Smt tag was cleaved using a U1p1 enzyme and dialyzed into 50 mM HEPES pH 7.5, 0.5 M NaCl, 5% Glycerol. The resultant protein was again purified on a Ni Chelating column to remove the U1p1 enzyme and His-Smt tag and then purified by size exclusion chromatography on a Sephacryl S-100 26/60 column into the following final buffer: 20 mM NaPhos pH 7.0, 100 mM NaCl, 5 mM MgCl2, 2 mM TCEP.
# Concentrations: 60 μM Rheb, 180 μM GDP and 2 μM of each compound,
# Ultrafiltration Filter (Sartorius, Germany) MW cutoff: 10 KDa
# • (a) Sample preparation: Prepare sample for each group in 1.5 mL microcentrifuge tube according to the experimental design, total volume 550 μL. In a standard ASMS experiment there are two groups: Protein plus (P+L+) and protein minus (P−L+). • (b) Transfer 50 μL from the 550 μL to a vial as R0 sample. Incubate the rest solution for 30 min at room temperature. Then transfer the 500 μL into an ultrafiltration filter tube and centrifuge at 12×10^3 rpm for ˜10 min, leave about 50 μL solution (otherwise adjust this time). • (c) Add incubation buffer to the ultrafiltration filter tube to about 500 μL. Stir gently and centrifuge mixtures as above, leave about 50 μL solution. • (d) Repeat the step c. Transfer the remaining 50 μL upper layer solution to a new vial as R^3 sample. Sample Extraction: Add 150 μL MeCN to denature the protein completely. Centrifuge at 12×10^3 rpm for 5 min. Transfer the supernatant into LC-MS auto sampler vials for LC-MS analysis (5 uL injection).
# Waters Acquity UPLC system, Waters ACQUITY UPLC BEH C18 column (2.1×50 mm, 1.7 μM); Mobile phase A: 0.1% formic acid solution, B: MeCN; 0.3 mL/min, 5 μL injection, gradient elution (Table 5).
# Waters Synapt G1 Q-TOF system, positive or negative ion scan modes; Capillary voltage: 3.0 kV; Method: MSE; Mass range: m/z=100-1000; Source temperature: 120° C.; Desolvation temperature: 400° C.; Collision voltage: 35 V; Sampling Cone: 35 V; Extraction Cone: 4.0 V; Cone Gas: 50 L/h; Desolvation Gas: 800 L/h.
# Chain of HA-GST-Rheb (GTP-γ-S loaded) activating mTORC1 (Q15382 1-181): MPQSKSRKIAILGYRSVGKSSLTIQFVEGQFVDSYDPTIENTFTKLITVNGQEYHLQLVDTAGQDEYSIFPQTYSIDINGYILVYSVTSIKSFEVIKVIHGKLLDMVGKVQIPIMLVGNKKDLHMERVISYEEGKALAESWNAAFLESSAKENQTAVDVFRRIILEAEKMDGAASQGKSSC
IC50 [1] [µM],SMILES,ASMS (R3/R0) (Rheb)
< 10,"CN(C)C(=O)c1ccc(Cn2c(C(=O)O)cc3c(SCCc4ccc(Cl)c(Cl)c4)cc(SCCc4ccc(Cl)c(Cl)c4)cc32)cc1 [I-16, 4,6-bis(3,4-dichlorophenethylthio)-1-(4-(dimethylcarbamoyl)benzyl)-1H-indole-2-carboxylic acid]",B (an affinity (R3/R0) between 100% and 20%)
< 10,"CN(C)C(=O)c1ccc(Cn2c(C(=O)O)cc3ccc(Sc4ccc(Oc5ccccc5)cc4)cc32)cc1 [I-17, 1-(4-(dimethylcarbamoyl)benzyl)-6-(4-phenoxyphenylthio)-1H-indole-2-carboxylic acid]",B (an affinity (R3/R0) between 100% and 20%)
> 100,CN(C)C(=O)c1ccc(Cn2c(C(=O)O)cc3c(Br)cc(SCc4ccc(Cl)c(Cl)c4)cc32)cc1 [I-18],B (an affinity (R3/R0) between 100% and 20%)
< 10,"CN(C)C(=O)c1ccc(Cn2c(C(=O)O)cc3c(Sc4cccc(OC(F)(F)F)c4)cc(Sc4cccc(OC(F)(F)F)c4)cc32)cc1 [I-19, 1-(4-(dimethylcarbamoyl)benzyl)-4,6-bis(3-(trifluoromethoxy)phenylthio)-1H-indole-2-carboxylic acid]",B (an affinity (R3/R0) between 100% and 20%)
< 10,"CN(C)C(=O)c1ccc(Cn2c(C(=O)O)cc3c(Br)cc(Sc4cccc(OC(F)(F)F)c4)cc32)cc1 [I-20, 4-bromo-1-(4-(dimethylcarbamoyl)benzyl)-6-(3-(trifluoromethoxy)phenylthio)-1H-indole-2-carboxylic acid]",A (an affinity (R3/R0)>100%)
> 100,CN1CC(NC(=O)c2cc3c(Sc4ccc(Cl)cc4Cl)cc(Cl)c(Cl)c3[nH]2)C1 [I-21],C (an affinity (R3/R0)<20%)
> 100,CN(C)C(=O)c1ccc(Cn2c(C(=O)O)cc3c(Br)cc(Sc4ccc(C(F)(F)F)cc4)cc32)cc1 [I-22],B (an affinity (R3/R0) between 100% and 20%)
> 100,CN1CCC(CNC(=O)c2cc3c(Br)cc(Sc4ccc5ccccc5c4)cc3n2Cc2ccc(C(=O)N(C)C)cc2)CC1 [I-23],B (an affinity (R3/R0) between 100% and 20%)
< 10,"CN(C)C(=O)c1ccc(Cn2c(C(=O)O)cc3c(Br)cc(SCC4CCCCC4)cc32)cc1 [I-24, 4-bromo-6-(cyclohexylmethylthio)-1-(4-(dimethylcarbamoyl)benzyl)-1H-indole-2-carboxylic acid]",B (an affinity (R3/R0) between 100% and 20%)
< 10,"CN(C)C(=O)c1ccc(Cn2c(C(=O)O)cc3c(Br)cc(SCCc4ccc(Cl)c(Cl)c4)cc32)cc1 [I-25, 4-bromo-6-(3,4-dichlorophenethylthio)-1-(4-(dimethylcarbamoyl)benzyl)-1H-indole-2-carboxylic acid]",B (an affinity (R3/R0) between 100% and 20%)
> 100,CN1CC(NC(=O)c2cc3c(-c4cc(Cl)cc(Cl)c4)cc(Cl)cc3[nH]2)C1 [I-26],B (an affinity (R3/R0) between 100% and 20%)
> 100,CN1CCC(CCNC(=O)c2cc3c(Sc4ccc(Cl)cc4Cl)cc(Cl)c(Cl)c3[nH]2)CC1 [I-27],B (an affinity (R3/R0) between 100% and 20%)
< 10,"CN(C)C(=O)c1ccc(Cn2c(C(=O)O)cc3c(Br)cc(Sc4ccc5ccccc5c4)cc32)cc1 [I-28, 4-bromo-1-(4-(dimethylcarbamoyl)benzyl)-6-(naphthalen-2-ylthio)-1H-indole-2-carboxylic acid]",B (an affinity (R3/R0) between 100% and 20%)
> 100,CN1CCC(CCNC(=O)c2cc3c(-c4cc(Cl)cc(Cl)c4)cc(Cl)cc3[nH]2)CC1 [I-31],A (an affinity (R3/R0)>100%)
< 10,"CN1CCCN(c2ccc(NC(=O)c3cc4c(Sc5ccc(Cl)cc5Cl)cc(Cl)c(Cl)c4[nH]3)cc2F)CC1 [I-32, 6,7-dichloro-4-(2,4-dichlorophenyl)sulfanyl-N-[3-fluoro-4-(4-methyl-1,4-diazepan-1-yl)phenyl]-1H-indole-2-carboxamide]",A (an affinity (R3/R0)>100%)
